According to patent publication US9776972B2, “Pyrazole derivatives as arginine methyltransferase inhibitors and uses thereof” (priority 2013, dated 2017):
Where a name gives a salt, the structure may show the parent alone. Read-outs that look alike come from different tables or passages of the source.

Key:
[1] = tested on: mono-methyl arginine in RKO cells; assay: RKO Methylation Assay, In Cell Western (ICW) for mono-methyl arginine and DNA content; format: cell-based; details: Homo sapiens, RKO, 72 h
Text: RKO adherent cells were purchased from ATCC (American Type Culture Collection), Manassas, Va., USA. DMEM/Glutamax medium, penicillin-streptomycin, heat inactivated fetal bovine serum, 0.05% trypsin and D-PBS were purchased from Life Technologies, Grand Island, N.Y., USA. Odyssey blocking buffer, 800CW goat anti-rabbit IgG (H+L) antibody, and Licor Odyssey infrared scanner were purchased from Licor Biosciences, Lincoln, Nebr., USA. Mono-methyl arginine antibody was purchased from Cell Signaling Technology, Danvers, Mass., USA. Methanol was purchased from VWR, Franklin, Mass., USA. 10% Tween 20 was purchased from KPL, Inc., Gaithersburg, Md., USA. DRAQ5 was purchased from Biostatus Limited, Leicestershire, UK.
RKO adherent cells were maintained in growth medium (DMEM/Glutamax medium supplemented with 10% v/v heat inactivated fetal bovine serum and 100 units/mL penicillin-streptomycin) and cultured at 37° C. under 5% CO2.
Cell Treatment, in Cell Western (ICW) for Detection of Mono-Methyl Arginine and DNA Content.
RKO cells were seeded in assay medium at a concentration of 20,000 cells per mL to a poly-D-lysine coated 384 well culture plate (BD Biosciences 356697) with 50 μL per well. Compound (100 nL) from a 96-well source plate was added directly to 384 well cell plate. Plates were incubated at 37° C., 5% CO2 for 72 hours. After three days of incubation, plates were brought to room temperature outside of the incubator for ten minutes and blotted on paper towels to remove cell media. 50 μL of ice cold 100% methanol was added directly to each well and incubated for 30 min at room temperature. After 30 min, plates were transferred to a Biotek EL406 plate washer and washed 2 times with 100 μL per well of wash buffer (1×PBS). Next 60 μL per well of Odyssey blocking buffer (Odyssey Buffer with 0.1% Tween 20 (v/v)) were added to each plate and incubated 1 hour at room temperature. Blocking buffer was removed and 20 μL per well of primary antibody was added (mono-methyl arginine diluted 1:200 in Odyssey buffer with 0.1% Tween 20 (v/v)) and plates were incubated overnight (16 hours) at 4° C. Plates were washed 5 times with 100 μL per well of wash buffer. Next 20 μL per well of secondary antibody was added (1:200 800CW goat anti-rabbit IgG (H+L) antibody, 1:1000 DRAQ5 (Biostatus limited) in Odyssey buffer with 0.1% Tween 20 (v/v)) and incubated for 1 hour at room temperature. The plates were washed 5 times with 100 μL per well wash buffer then 2 times with 100 μL per well of water. Plates were allowed to dry at room temperature then imaged on the Licor Odyssey machine which measures integrated intensity at 700 nm and 800 nm wavelengths. Both 700 and 800 channels were scanned.
First, the ratio for each well was determined by:
Each plate included fourteen control wells of DMSO only treatment (minimum activation) as well as fourteen control wells for maximum activation treated with 20 μM of a reference compound. The average of the ratio values for each control type was calculated and used to determine the percent activation for each test well in the plate. Reference compound was serially diluted three-fold in DMSO for a total of nine test concentrations, beginning at 20 μM. Percent activation was determined and EC30 curves were generated using triplicate wells per concentration of compound.

human PRMT8 = human PRMT8 (Homo sapiens, UniProt Q9NR22); assay: PRMT8 Biochemical Assay (3H-SAM Flashplate, peptide substrate); details: single experiment or average of multiple experiments
Chain of human PRMT8 (Q9NR22 whole entry): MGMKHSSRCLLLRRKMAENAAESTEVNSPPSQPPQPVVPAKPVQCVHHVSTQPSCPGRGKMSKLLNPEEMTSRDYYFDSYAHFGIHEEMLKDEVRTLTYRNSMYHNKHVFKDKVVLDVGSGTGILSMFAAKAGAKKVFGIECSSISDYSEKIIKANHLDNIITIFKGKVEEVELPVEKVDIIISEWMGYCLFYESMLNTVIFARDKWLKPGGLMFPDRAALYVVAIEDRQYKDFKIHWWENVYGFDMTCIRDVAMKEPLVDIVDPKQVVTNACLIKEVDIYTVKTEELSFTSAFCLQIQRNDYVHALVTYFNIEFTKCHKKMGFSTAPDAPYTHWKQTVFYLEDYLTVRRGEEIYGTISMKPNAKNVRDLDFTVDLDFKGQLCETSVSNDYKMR
Text: S-adenosylmethionine (SAM), S-adenosylhomocysteine (SAH), bicine, Tween20, dimethylsulfoxide (DMSO), bovine skin gelatin (BSG), isopropyl-β-D-thiogalactopyranoside (IPTG), and Tris(2-carboxyethyl)phosphine hydrochloride solution (TCEP) were purchased from Sigma-Aldrich at the highest level of purity possible. ^3H-SAM was purchase from American Radiolabeled Chemicals with a specific activity of 80 Ci/mmol. 384-well streptavidin Flashplates were purchased from PerkinElmer.
Peptide representative of human histone H4 residues 31-45 was synthesized with an N-terminal linker-affinity tag motif and a C-terminal amide cap by 21st Century Biochemicals.
E. coli (BL21(DE3) Gold, Stratagene) made competent by the CaCl2 method were transformed with the PRMT8 construct and ampicillin selection. Protein over-expression was accomplished by growing the PRMT8 expressing E. coli clone and inducing expression with 0.3 mM IPTG at 16° C. The culture was grown for 12 hours, harvested by centrifugation, and stored at −80° C. for purification.
GST-tagged PRMT8 was eluted with 50 mM Tris, 2 mM glutathione, pH 7.8. Pooled fractions were cleaved by thrombin (10 U) and dialysed in buffer A. GST was removed by reloading the cleaved protein sample onto glutathione sepharose column and PRMT8 was collected in the flow-through fractions. PRMT8 was purified further by ceramic hydroxyapatite chromatography. The column was washed with 50 mM phosphate buffer, 100 mM NaCl, 5% glycerol, 5 mM β-mercaptoethanol, pH 7.8 and PRMT8 was eluted by 100 mM phosphate in the same buffer. Protein was concentrated and buffer was exchanged to 50 mM Tris, 300 mM NaCl, 10% glycerol, 5 mM β-mercaptoethanol, pH 7.8 by ultrafiltration.
General Procedure for PRMT8 Enzyme Assays on Peptide Substrates.
The assays were all performed in a buffer consisting of 20 mM Bicine (pH=7.6), 1 mM TCEP, 0.005% BSG, and 0.002% Tween 20, prepared on the day of use. […] DMSO (1 ul) was added to Columns 11, 12, 23, 24, rows A-H for the maximum signal control and 1 ul of SAH, a known product and inhibitor of PRMT8, was added to columns 11, 12, 23, 24, rows I-P for the minimum signal control. A cocktail (40 ul) containing the PRMT8 enzyme was added by Multidrop Combi (Thermo-Fisher). The compounds were allowed to incubate with PRMT8 for 30 min at room temperature, then a cocktail (10 ul) containing ^3H-SAM and peptide was added to initiate the reaction (final volume=51 ul). […] The assays were stopped by the addition of non-radiolabeled SAM (10 ul) to a final concentration of 400 uM, which dilutes the ^3H-SAM to a level where its incorporation into the peptide substrate is no longer detectable. 50 ul of the reaction in the 384-well polypropylene plate was then transferred to a 384-well Flashplate and the biotinylated peptides were allowed to bind to the streptavidin surface for at least 1 hour before being washed once with 0.1% Tween20 in a Biotek ELx405 plate washer. The plates were then read in a PerkinElmer TopCount plate reader to measure the quantity of ^3H-labeled peptide bound to the Flashplate surface, measured as disintegrations per minute (dpm) or alternatively, referred to as counts per minute (cpm).
Where dpm=disintegrations per minute, cmpd=signal in assay well, and min and max are the respective minimum and maximum signal controls.
Where top and bottom are the normally allowed to float, but may be fixed at 100 or 0 respectively in a 3-parameter fit. The Hill Coefficient normally allowed to float but may also be fixed at 1 in a 3-parameter fit. Y is the % inhibition and X is the compound concentration.

[2] = RKO cells, 72 hours, mono-methyl arginine, percent activation, single experiment or average of multiple experiments, read-out: EC30 (In Cell Western data, Numerical)
[3] = read-out: EC30 (In Cell Western data, Numerical, μM)

Structure (SMILES)	EC30 [1, 2]	IC50 (human PRMT8)	EC30 [1, 3]	EC30 ([1]; read-out: EC30 (In Cell Western data))
COCCn1ncc(CN(C)CCN)c1-c1ccc(F)cc1 [Compound 6]	> 20 µM			
CCn1ncc(CN(C)CCNC)c1-c1ccc(F)cc1 [Compound 7]	5.76 µM	3240 nM		
CCn1cc(CN(C)CCNC)c(-c2ccc(F)cc2)n1 [Compound 8]	> 20 µM	7200 nM		
CN(CCN)Cc1c[nH]nc1-c1ccc(OCC(F)(F)F)cc1 [Compound 96]	0.92 µM	171 nM		
CC(C)Oc1ccc(-c2n[nH]cc2CN(C)CCN)cc1F [Compound 97]		89 nM	0.184 µM	
CN(CCN)Cc1c[nH]nc1-c1ccc(C2CCOCC2)cc1 [Compound 98]	2.85 µM	156 nM		
CN(CCN)Cc1c[nH]nc1-c1ccc(F)cc1F [Compound 99]	11.8 µM	2200 nM		
CN(CCN)Cc1n[nH]cc1-c1ccc(C#N)cc1 [Compound 100]	2.98 µM	290 nM		
CC(C)c1ccc(-c2c[nH]nc2CN(C)CCN)cc1 [Compound 101]		570 nM	5.99 µM	
CN(CCN)Cc1n[nH]cc1-c1ccc(Cl)cc1 [Compound 102]	2.32 µM	311 nM		
CN(CCN)Cc1n[nH]cc1-c1ccc(C(F)(F)F)cc1 [Compound 103]	3.67 µM	366 nM		
CN(CCN)Cc1n[nH]cc1-c1ccc(C2CC2)cc1 [Compound 104]	3.92 µM	301 nM		
CN(CCN)Cc1n[nH]cc1-c1ccc(OC(F)(F)F)cc1 [Compound 105]	2.28 µM	130 nM		
COc1ccc(-c2n[nH]cc2CN(C)CCN)c(F)c1 [Compound 107]		912 nM		
Cc1ccc(-c2n[nH]cc2CN(C)CCN)c(F)c1 [Compound 108]		1000 nM		
COc1ccccc1-c1n[nH]cc1CN(C)CCN [Compound 109]		2080 nM		
Cc1cc(C#N)ccc1-c1n[nH]cc1CN(C)CCN [Compound 110]		540 nM		
CN(CCN)Cc1c[nH]nc1-c1cc(F)cc(F)c1 [Compound 111]		799 nM		
CC(=O)c1cccc(-c2n[nH]cc2CN(C)CCN)c1 [Compound 112]		335 nM		
CN(CCN)Cc1c[nH]nc1-c1ccc(OC2CC2)cc1 [Compound 114]	0.607 µM	47.5 nM		
CC(O)c1ccc(-c2n[nH]cc2CN(C)CCN)cc1 (stereo not shown) [Compound 115]		1100 nM		
CN(CCN)Cc1c[nH]nc1-c1ccc(C2CC2)cc1 [Compound 116]	1.41 µM	124 nM		
CN(CCN)Cc1c[nH]nc1-c1ccc(C(F)(F)F)c(Cl)c1 [Compound 117]	1.29 µM	87.8 nM		

Structure (SMILES)	EC30 [1, 2]	IC50 (human PRMT8)	EC30 [1, 3]	EC30 ([1]; read-out: EC30 (In Cell Western data))
CN(CCN)Cc1c[nH]nc1-c1ccc(Cl)c(F)c1 [Compound 118]	0.314 µM	136 nM		
CN(CCN)Cc1n[nH]cc1-c1ccc(OC2CC2)cc1 [Compound 119]	4.54 µM	336 nM		
CN(CCN)Cc1c[nH]nc1-c1cc(F)cc(Cl)c1 [Compound 121]	2.07 µM	218 nM		
CN(CCN)Cc1c[nH]nc1-c1cccc(Cl)c1 [Compound 122]	3.48 µM	548 nM		
CN(CCN)Cc1c[nH]nc1-c1cccc(Cl)c1F [Compound 123]	2.96 µM	532 nM		
CN(CCN)Cc1c[nH]nc1-c1ccc(F)c(Cl)c1 [Compound 124]	1.23 µM	294 nM		
COc1ccc(-c2n[nH]cc2CN(C)CCN)cc1Cl [Compound 125]		308 nM	1.57 µM	
Cc1ccc(-c2n[nH]cc2CN(C)CCN)cc1Cl [Compound 126]	1.23 µM	232 nM		
COc1cc(Cl)cc(-c2n[nH]cc2CN(C)CCN)c1 [Compound 127]	7.01 µM	548 nM		
Cc1c(F)cccc1-c1n[nH]cc1CN(C)CCN [Compound 129]	7.38 µM	990 nM		
COc1cccc(-c2n[nH]cc2CN(C)CCN)c1 [Compound 130]	3.92 µM	645 nM		
Cc1cccc(-c2n[nH]cc2CN(C)CCN)c1 [Compound 131]	2.56 µM	360 nM		
CN(CCN)Cc1c[nH]nc1-c1ccc(Cl)cc1F [Compound 132]		365 nM	2.4 µM	
Cc1cc(Cl)ccc1-c1n[nH]cc1CN(C)CCN [Compound 133]	2.91 µM	142 nM		
COc1ccc(-c2n[nH]cc2CN(C)CCN)cc1F [Compound 134]	1.09 µM	251 nM		
CN(CCN)Cc1c[nH]nc1-c1ccc(C(F)(F)F)cc1Cl [Compound 135]	8.05 µM	1320 nM		
CCNC(=O)c1ccc(-c2n[nH]cc2CN(C)CCN)cc1 [Compound 136]	> 20 µM	496 nM		
CN(CCN)Cc1c[nH]nc1-c1cc(Cl)cc(Cl)c1 [Compound 137]	4.18 µM	656 nM		
CN(CCN)Cc1n[nH]cc1-c1ccc(OC(F)F)cc1 [Compound 138]	2.28 µM	131 nM		
CN(CCN)Cc1c[nH]nc1-c1ccccc1C#N [Compound 140]	> 20 µM	8270 nM		
CN(CCN)Cc1c[nH]nc1-c1ccc(C(F)(F)F)c(F)c1 [Compound 141]	0.583 µM	305 nM		
CNCCN(C)Cc1cnn(C)c1-c1ccc(OC(C)C)cc1 [Compound 244, hydrochloride]			0.142 µM	< 3 µM
